{"source": "patent US20100093794A1", "about": "“Use of a Compound in Obtaining Cytoskeleton Blockage and Cell Elongation” (priority 2006, published 2010)", "key": {"[1]": {"test_system": "terminal cancer patients", "settings": "cited from earlier work"}, "[2]": {"test_system": "Microtubule", "assay": "Cytoskeleton staining and confocal microscope: microtubule (β-tubulin)", "type": "cell-based, human", "settings": "for red fluorescence intensity of β-tubulin: A549, 50 nM, 24 hours; for microtubule polymerization: comparison of cytoskeleton inhibitors", "protocol": "(§1) The cells were cultured on coverslips kept in a p60 Petri dish, and the coverslips were kept in a CO2 incubator for 16-20 hours. After being treated with or without PT-262, the cells were fixed in 4% parafomaldehyde solution for 60 minutes at 37° C. Then the coverslips were washed three times with PBS. The F-actin and β-tubulin were stained with 20 U/ml BODIPY FL phallacidin and anti-β-tubulin Cy3 for 30 minutes at 37° C., respectively. Finally, the nuclei were stained with 2.5 ug/ml Hoechst 33258 for 30 minutes. And the cells were added with 80% Glycerin and sealed with nail varnish. The samples were examined under a Leica confocal laser scanning microscope."}, "[3]": {"test_system": "A549 lung carcinoma cells", "assay": "Cytoskeleton staining and confocal microscope: cell elongation", "type": "cell-based, human", "protocol": "as §1"}, "[4]": {"test_system": "A549 lung carcinoma cells", "assay": "Cell cycle analysis (flow cytometer)", "type": "cell-based, human", "settings": "24 hours", "protocol": "(§2) The A549 cell line was derived from lung carcinoma of a person. The H1299 cell line has a homozygous deletion of the P53 gene that was derived from a non-small cell lung adenocarcinoma tumor. MCF-7 cell line was derived from breast adenocarcinoma of a person. Hela cell line was derived from cervical carcinoma of a person. These cell lines are cultured in RPMI-1640 medium supplemented with 10% fetal bovine serum, 100 units/ml penicillin, 100 ug/ml streptomycin, and L-glutamine (0.03%, w/v), and cells were incubated at 37° C. and 5% CO2.\n(§3) The cells were plated at a density of 1×10^6 cells per p60 dish for 16-20 hours. Then the cells were treated with PT-262 for 24 hours. After drug treatment, the cells were washed with PBS and re-treated with trypsin, the cells were suspended and collected in a 15 ml centrifuge tube. After centrifugation at 1500 rpm for 5 minutes, the cells were fixed with 70% ethanol and stored at −20° C. for at least 2 hours. After being re-centrifuged at 1500 rpm for 5 minutes, the cell pellets were incubated with 4 ug/ml propidium iodine solution containing 1% Triton X-100 and 100 ug/ml RNase A for 30 minutes. The cell cycle was then analyzed by flow cytometer, and the percentage of cell cycle was quantified by ModFit Lt software (Ver. 2.0)."}, "[5]": {"test_system": "A549 lung carcinoma cells", "assay": "Cell growth assay", "type": "cell-based, human", "settings": "24 hours", "protocol": "as §2\nThe cells were plated at a density of 5×10^5 cells per p100 Petri dish for 16-20 hours. Then the cells were treated with PT-262 of different concentrations for 24 hours. After drug treatment, the cells were washed with PBS and re-treated with trypsin, the cells were suspended and were counted by a hemocytometer."}, "[6]": {"test_system": "F-actin", "assay": "Cytoskeleton staining and confocal microscope: actin filament (F-actin)", "type": "cell-based, human", "protocol": "as §1"}, "[7]": {"test_system": "A549 lung carcinoma cells", "assay": "Mitochondrial membrane potential (DiOC6, flow cytometer)", "type": "cell-based, human", "settings": "as the drug concentration increased, 24 hours", "protocol": "The cells were cultured in 60-mm Petri dish at a density of 5×10^5 cells. Then the cells were treated with PT-262 of different concentrations for 24 hours. After drug treatment, the cells were washed with PBS and were trypsinized, the cells were suspended and were counted by a hemocytometer. The cells were collected by centrifugation, and the pellets were resuspended in 70% ethanol and stored at […]20° C. for at least 2 hours. After centrifugation, the pelts were incubated with 0.5 uM DiOC6 for 30 minutes. Then cell pellets were collected by centrifugation and resuspended in 0.5 ml ice-cold PBS. Finally, fluorescence intensities of DiOC6 were analyzed on a flow cytometer."}, "[8]": {"test_system": "H1299 cells", "assay": "Cell cycle analysis (flow cytometer)", "type": "cell-based", "settings": "24 hours", "protocol": "as §2, §3"}, "[9]": {"test_system": "Hela cervical carcinoma cells", "assay": "MTT assay (cytotoxicity)", "type": "cell-based, human", "protocol": "as §2\n(§4) Briefly, the cells were plated in 96-well plates at a density of 1×10^4 cells/well for 16-20 hours. Then the cells were treated with pt-262 for 24 hours in serum-free RPMI-1640 medium. After drug treatment, the cells were washed with phosphate-buffered saline (PBS), and were re-cultured in complete RPMI-1640 medium for 48 hours. Subsequently, the medium was replaced and the cells were incubated with 500 ug/ml MTT in complete RPMI-1640 medium for 4 hours. The surviving cells were dissolved in DMSO after removing the MTT medium, and was measured at 565 nm using a ELISA reader."}, "[10]": {"test_system": "MCF-7 breast carcinoma cells", "assay": "MTT assay (cytotoxicity)", "type": "cell-based, human", "protocol": "as §2, §4"}, "[11]": {"test_system": "Ras", "assay": "Western blot", "type": "cell-based", "settings": "cancer cells; after treatment with PT-262", "protocol": "(§5) At the end of treatment, the cells were lysed in the cell extract buffer containing the protease inhibitors. Amounts of proteins in samples were subjected to electrophoresis using 10-12 sodium dodecyl sulfate-polyacrylamide gels. After electrophoretic transfer of proteins onto polyvinylidene difluoride (PVDF) membranes, the membranes were dipped in 5% degreased milk containing first antibody for 24 hours at 4° C. After being washed three times with TTBS buffer solution for 5-15 minutes at room temperature, the PVDF membranes are dipped in 5% degreased milk containing second antibody for 1-2 hours at room temperature. And then the membranes were re-washed three times with TTBS buffer solution for 5-15 minutes at room temperature. Finally, the protein bands were visualized using the enhanced chemiluminescence detection system."}, "[12]": {"test_system": "cyclin B1", "assay": "Western blot", "type": "cell-based", "settings": "cancer cells; 5-20 uM, 24 hours", "protocol": "as §5"}, "[13]": {"test_system": "phospho-ERK", "assay": "Western blot", "type": "cell-based", "settings": "cancer cells; after treatment with PT-262", "protocol": "as §5"}, "[14]": {"test_system": "phospho-cdc2", "assay": "Western blot", "type": "cell-based", "settings": "cancer cells; 5-20 uM, 24 hours", "protocol": "as §5"}, "[15]": {"test_system": "caspase-3", "assay": "Western blot", "type": "cell-based", "settings": "cancer cells", "protocol": "as §5"}, "[16]": {"test_system": "human A549 lung carcinoma cells", "assay": "MTT assay (cytotoxicity)", "type": "cell-based", "protocol": "as §2, §4"}, "[17]": {"settings": "lung carcinoma cells, comparison of cytoskeleton inhibitors"}, "[18]": {"settings": "comparison of cytoskeleton inhibitors"}, "[19]": {"settings": "Homo sapiens, treatment for 24 hours, at cell viability of 50%"}}, "note": "Starred links: 1 amine or outer side, 2 acyl side, 3 side chain; linkers in the order of their positions; H or OH if unused. Positions of bridges follow the written chain, without caps; N, C: chain ends. Non-standard residues stand in square brackets, D forms with d. Residues, ends and D or L forms follow the SMILES beside them. Trp(2-yl) = O=C([C@H](Cc1c([*:3])[nH]c2ccccc12)N[*:1])[*:2]; Leu(4R-OH,5-OH) = C[C@](O)(CO)C[C@H](N)C(=O)O; cisHyp = O=C(O)[C@@H]1C[C@H](O)CN1"}
{"smiles": "CC(=O)O[C@H]1C(=O)[C@@]2(C)[C@H]([C@H](OC(=O)c3ccccc3)[C@]3(O)C[C@H](OC(=O)[C@H](O)[C@@H](NC(=O)c4ccccc4)c4ccccc4)C(C)=C1C3(C)C)[C@]1(OC(C)=O)CO[C@@H]1C[C@@H]2O", "note": "[paclitaxel]", "values": [{"measurement": "suppression rate", "setting": "[1]; 40 terminal cancer patients", "result": 30, "unit": "%"}, {"measurement": "patients reduced in tumor size by over 50%", "setting": "[1]; of 40 terminal cancer patients", "result": 12}, {"measurement": "red fluorescence intensity of β-tubulin", "setting": "[2]", "result": "increased"}, {"measurement": "microtubule polymerization", "setting": "[2]", "result": "induced"}, {"measurement": "cell elongation", "setting": "[3]; [17]", "result": "didn't induce"}]}
{"smiles": "O=C1C(N2CCCCC2)=C(Cl)C(=O)c2ncccc21", "note": "[PT-262, 7-chloro-6-piperidin-1-yl-quinoline-5,8-dione]", "values": [{"measurement": "G0/G1 fractions", "setting": "[4]", "result": "decreased"}, {"measurement": "G2/M fractions", "setting": "[4]", "result": "increased"}, {"measurement": "growth arrest", "setting": "[5]; 10 uM", "result": "almost completely induced"}, {"measurement": "cell growth", "setting": "[5]; 5-10 uM", "result": "concentration-dependently inhibited"}, {"measurement": "F-actin polymerization", "setting": "[6]; A549, 2 uM", "result": "induced"}, {"measurement": "actin polymerization", "setting": "[6]; [18]", "result": "induction"}, {"measurement": "Mitochondrial membrane potential", "setting": "[7]", "result": "noticeably inhibited"}, {"measurement": "G0/G1 fractions", "setting": "[8]", "result": "decreased"}, {"measurement": "G2/M fractions", "setting": "[8]", "result": "increased"}, {"measurement": "cell survival ratio", "setting": "[9]; 1-10 uM, 24 hours", "result": "decreased as the concentration increased"}, {"measurement": "IC50", "setting": "[9]; [19]", "result": "2 to 4", "unit": "µM"}, {"measurement": "cell survival ratio", "setting": "[10]; 1-10 uM, 24 hours", "result": "decreased as the concentration increased"}, {"measurement": "IC50", "setting": "[10]; Homo sapiens, MCF7, treatment for 24 hours, at cell viability of 50%", "result": "2 to 4", "unit": "µM"}, {"measurement": "expression level of Ras", "setting": "[11]", "result": "decreased"}, {"measurement": "levels of cyclin B1 protein", "setting": "[12]", "result": "noticeably decreased"}, {"measurement": "expression level of phospho-ERK", "setting": "[13]", "result": "decreased"}, {"measurement": "levels of phospho-cdc2 protein", "setting": "[14]", "result": "noticeably decreased"}, {"measurement": "caspase-3 activation", "setting": "[15]", "result": "noticeably induced"}, {"measurement": "cell survival ratio", "setting": "[16]; 1-10 uM, 24 hours", "result": "decreased as the concentration increased"}, {"measurement": "IC50", "setting": "[16]; [19]", "result": "2 to 4", "unit": "µM"}, {"measurement": "cell elongation", "setting": "[3]; A549, 2 uM", "result": "induced"}, {"measurement": "cell length of some cells", "setting": "[3]; A549, Leica confocal software", "result": 160, "unit": "um"}, {"measurement": "average cell length", "setting": "[3]; A549, untreated 39.2 um, Leica confocal software", "result": 65.3, "unit": "um"}, {"measurement": "cell elongation", "setting": "[3]; [17]", "result": "increased"}]}
{"smiles": "C[C@@H]1NC(=O)[C@H](C[C@@](C)(O)CO)NC(=O)[C@@H]2Cc3c([nH]c4ccccc34)SC[C@H](NC(=O)[C@@H]([C@H](C)O)NC1=O)C(=O)N1C[C@@H](O)C[C@H]1C(=O)N[C@@H](C)C(=O)N2", "note": "[phalloidin] (cyclo(A[dT]C[cisHyp]A[Trp(2-yl)][Leu(4R-OH,5-OH)]); thioether 3-6)", "values": [{"measurement": "green fluorescence intensity of F-actin", "setting": "[6]; A549, 24 hours", "result": "increased"}, {"measurement": "actin depolymerization", "setting": "[6]; [18]", "result": "inhibit"}, {"measurement": "cell elongation", "setting": "[3]; A549, 24 hours", "result": "caused the cell elongation"}]}
{"smiles": "COc1cc2c(c(OC)c1OC)-c1ccc(OC)c(=O)cc1[C@@H](NC(C)=O)CC2", "note": "[colchichine]", "values": [{"measurement": "red fluorescence intensity of β-tubulin", "setting": "[2]", "result": "reduced"}, {"measurement": "microtubule polymerization", "setting": "[2]", "result": "inhibiting"}, {"measurement": "cell elongation", "setting": "[3]; [17]", "result": "didn't induce"}]}
{"smiles": "C=C1[C@@H](C)[C@H]2[C@H](Cc3ccccc3)NC(=O)[C@]23OC(=O)/C=C/[C@H](O)CCC[C@@H](C)C/C=C/[C@H]3[C@@H]1O", "note": "[cytochalasin B, reference compound]", "values": [{"measurement": "actin polymerization", "setting": "[6]; [18]", "result": "prevented"}, {"measurement": "cell elongation", "setting": "[3]; [17]", "result": "didn't induce"}]}
